Nc1ccc(S(=O)(=O)Nc2ncccn2)cc1
solubility (mole fraction)
Conditions | 278.15 K | 283.15 K | 288.15 K | 293.15 K | 298.15 K | 303.15 K | 308.15 K | 313.15 K | 318.15 K
in acetonitrile | 0.000316 | 0.000385 | 0.000465 | 0.000532 | 0.000602 | 0.000666 | 0.000775 | 0.000865 | 0.000935
in methanol | 7.1e-05 | 9.5e-05 | 0.000132 | 0.000162 | 0.000191 | 0.000236 | 0.00029 | 0.00034 | 0.000384

From BigSolDB 2.1
